Earlier results in patent US11197880B2, “Use of eriocitrin compositions for increasing GLP-1 levels” (INGREDIENTS BY NATURE, LLC, priority 2019, dated 2021).

Tested on: mice (C57BL/6J)
[1] = mice (C57BL/6J), eriocitrin 140 mg/kg/day
[2] = mice supplemented with eriocitrin, previous study

For `C[C@@H]1O[C@@H](OC[C@H]2O[C@@H](Oc3cc(O)c4c(c3)O[C@H](c3ccc(O)c(O)c3)CC4=O)[C@H](O)[C@@H](O)[C@@H]2O)[C@H](O)[C@H](O)[C@H]1O` [Eriocitrin, eriodictyol 7-O-B-rutinoside], the “inflammatory markers (IL-6 and MCP-1)” value [1] is listed as “decreased inflammatory markers”, the total antioxidant capacity [1] is listed as “increased total antioxidant capacity” and the blood glucose [2] is listed as “reduced blood glucose”. The insulin sensitivity [2] was “improved insulin sensitivity”.
